The results in this text go back to US12012417B2, “N-substituted tetrahydrothienopyridine derivatives and uses thereof” (NOVARTIS AG, priority 2018, dated 2024).

SMILES strings stand for the structures. pEC50: −log10 of the molar value.

Assay [1] deals with Dengue 3 virus MY05-34640-WT-C6/36. Briefly: High-content imaging cell-based flavivirus immunodetection (HCl-CFI) assay, Dengue 3. Conditions: Dengue virus, A549, 48 h, read-out: Dengue 3 virus MY05-34640-WT-C6/36 in A549 using HCl [Inhibitor/IC50] Qualified AC50.
The subject of assay [2] is Dengue 2 virus MY97-10340. Briefly: High-content imaging cell-based flavivirus immunodetection (HCl-CFI) assay, Dengue 2. The settings on record: Dengue virus, A549, 48 h, read-out: Dengue 2 virus MY97-10340 in A549 using HCl [Inhibitor/IC50] Qualified AC50, A549 cells, MOI 0.3, 48 h, viral E protein expression. An outline of the steps:
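A549 cells infected at MOI 0.3, treated with 3-fold, 10-point compound dilutions for 48 h. After paraformaldehyde fixation, viral E protein immunostained with 4G2 antibody and nuclei counterstained; imaged by high-content imaging. EC50 = concentration reducing E protein expression by 50%, from dose-response curves.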

Assay [3] has as its system Dengue 1 virus MY97-10245. Briefly: High-content imaging cell-based flavivirus immunodetection (HCl-CFI) assay, Dengue 1. Conditions: Dengue virus, A549, 48 h, read-out: Dengue 1 virus MY97-10245 in A549 using HCl [Inhibitor/IC50] Qualified AC50.
For assay [4], the system named is Dengue 4 virus MY01-22713. Briefly: High-content imaging cell-based flavivirus immunodetection (HCl-CFI) assay, Dengue 4. The settings on record: Dengue virus, A549, 48 h, read-out: Dengue 4 virus MY01-22713 in A549 using HCl [Inhibitor/IC50] Qualified AC50, A549 cells, 48 h, viral E protein expression.

For `N#Cc1c(NC(=O)Cc2ccc(S(N)(=O)=O)cc2)sc2c1CCN(Cc1ccc(F)c(F)c1)C2` [Example 105, N-(3-cyano-6-(3,4-difluorobenzyl)-4,5,6,7-tetrahydrothieno[2,3-c]pyridin-2-yl)-2-(4-sulfamoylphenyl)acetamide], the pEC50 in assay [1] is 6.00 to 7.00; in assay [2], 6.00 to 7.00; in assay [3], below 6.00; in assay [4], 6.00 to 7.00.
Turning to `CS(=O)(=O)c1ccc(CC(=O)Nc2sc3c(c2C#N)CCN(Cc2ccc(F)c(F)c2)C3)cc1` [Example 117, N-(3-cyano-6-(3,4-difluorobenzyl)-4,5,6,7-tetrahydrothieno[2,3-c]pyridin-2-yl)-2-(4-(methylsulfonyl)phenyl)acetamide], the pEC50 in assay [1] was 6.00 to 7.00; in assay [2] it was 6.00 to 7.00; in assay [3], 6.00 to 7.00; in assay [4] it was above 7.00.
Turning to `N#Cc1c(NC(=O)Cc2ccc(S(N)(=O)=O)s2)sc2c1CN(CC1CCCCC1)CC2` [Example 84, N-(3-cyano-5-(cyclohexylmethyl)-4,5,6,7-tetrahydrothieno[3,2-c]pyridin-2-yl)-2-(5-sulfamoylthiophen-2-yl)acetamide], the pEC50 in assay [1], in assay [2], in assay [3] and in assay [4] was above 7.00 each time.
For the compound `Cc1cccc(CN2CCc3c(sc(NC(=O)Cc4ccc(S(N)(=O)=O)cc4)c3C#N)C2)c1F` [Example 115, N-(3-cyano-6-(2-fluoro-3-methylbenzyl)-4,5,6,7-tetrahydrothieno[2,3-c]pyridin-2-yl)-2-(4-sulfamoylphenyl)acetamide], the pEC50 in assay [1] was above 7.00; in assay [2] it was above 7.00; in assay [3] it was 6.00 to 7.00; in assay [4], above 7.00.
For `COC(=O)c1cccc(CN2CCc3c(sc(NC(=O)Cc4ccc(S(N)(=O)=O)cc4)c3C#N)C2)c1` [Example 108, Methyl 3-((3-cyano-2-(2-(4-sulfamoylphenyl)acetamido)-4,7-dihydrothieno[2,3-c]pyridin-6(5H)-yl)methyl)benzoate], the pEC50 in assay [1] was above 7.00; in assay [2] it was above 7.00; in assay [3], 6.00 to 7.00; in assay [4], above 7.00.
Consider `Cc1cc(C)cc(CN2CCc3c(sc(NC(=O)Cc4ccc(S(C)(=O)=O)cc4)c3C#N)C2)c1` [Example 118, N-(3-cyano-6-(3,5-dimethylbenzyl)-4,5,6,7-tetrahydrothieno[2,3-c]pyridin-2-yl)-2-(4-(methylsulfonyl)phenyl)acetamide], for which the pEC50 is 6.00 to 7.00 in assay [1], 6.00 to 7.00 in assay [2], below 6.00 in assay [3] and 6.00 to 7.00 in assay [4].
Take `CCOc1cc(CC(=O)Nc2sc3c(c2C#N)CN(Cc2cccc(F)c2)CC3)ccc1S(N)(=O)=O` [Example 21, N-(3-cyano-5-(3-fluorobenzyl)-4,5,6,7-tetrahydrothieno[3,2-c]pyridin-2-yl)-2-(3-ethoxy-4-sulfamoylphenyl)acetamide]: the pEC50 in assay [1], in assay [2], in assay [3] and in assay [4] was above 7.00 throughout.
In the case of `N#Cc1c(NC(=O)Cc2ccc3c(c2)CNS3(=O)=O)sc2c1CN(CC1CC(F)(F)C1)CC2` [Example 52, N-(3-cyano-5-((3,3-difluorocyclobutyl)methyl)-4,5,6,7-tetrahydrothieno[3,2-c]pyridin-2-yl)-2-(1,1-dioxido-2,3-dihydrobenzo[d]isothiazol-5-yl)acetamide], the pEC50 was 6.00 to 7.00 in assay [1], 6.00 to 7.00 in assay [2], below 6.00 in assay [3] and 6.00 to 7.00 in assay [4].
Take `COc1cccc(CC(=O)Nc2sc3c(c2C#N)CN(Cc2cccc(F)c2)CC3)c1F` [Example 40, N-(3-cyano-5-(3-fluorobenzyl)-4,5,6,7-tetrahydrothieno[3,2-c]pyridin-2-yl)-2-(2-fluoro-3-methoxyphenyl)acetamide]: the pEC50 is 6.00 to 7.00 in assay [1], 6.00 to 7.00 in assay [2], below 6.00 in assay [3] and 6.00 to 7.00 in assay [4].
`CCOc1cc(CC(=O)Nc2sc3c(c2C#N)CN(CC2CCCCC2)CC3)ccc1S(N)(=O)=O` [Example 12, N-(3-cyano-5-(cyclohexylmethyl)-4,5,6,7-tetrahydrothieno[3,2-c]pyridin-2-yl)-2-(3-ethoxy-4-sulfamoylphenyl)acetamide]: the pEC50 in assay [1], in assay [2], in assay [3] and in assay [4] was above 7.00 in each case.
For `CS(=O)(=O)n1ccc(CC(=O)Nc2sc3c(c2C#N)CN(Cc2cccc(F)c2)CC3)c1` [Example 36, N-(3-cyano-5-(3-fluorobenzyl)-4,5,6,7-tetrahydrothieno[3,2-c]pyridin-2-yl)-2-(1-(methylsulfonyl)-1H-pyrrol-3-yl)acetamide], the pEC50 in assay [1] is 6.00 to 7.00; in assay [2], 6.00 to 7.00; in assay [3], below 6.00; in assay [4], 6.00 to 7.00.
Take `COc1cc(CC(=O)Nc2sc3c(c2C#N)CN(CC2CCCCC2)CC3)ccc1S(C)(=O)=O` [Example 10, N-(3-cyano-5-(cyclohexylmethyl)-4,5,6,7-tetrahydrothieno[3,2-c]pyridin-2-yl)-2-(3-methoxy-4-(methylsulfonyl)phenyl)acetamide]: the pEC50 in assay [1] was above 7.00; in assay [2], above 7.00; in assay [3], 6.00 to 7.00; in assay [4] it was above 7.00.
On to `CC1Cc2sc(NC(=O)Cc3ccc(S(C)(=O)=O)cc3)c(C#N)c2CN1Cc1cccc(F)c1` (stereo not drawn) [Example 69, N-(3-cyano-5-(3-fluorobenzyl)-6-methyl-4,5,6,7-tetrahydrothieno[3,2-c]pyridin-2-yl)-2-(4-(methylsulfonyl)phenyl)acetamide], for which the pEC50 was above 7.00 in assay [1], above 7.00 in assay [2], 6.00 to 7.00 in assay [3] and above 7.00 in assay [4].
With `N#Cc1c(NC(=O)Cc2ccc(S(N)(=O)=O)cc2)sc2c1CCN(Cc1cccc(F)c1)CC2` [Example 124, N-(3-cyano-6-(3-fluorobenzyl)-5,6,7,8-tetrahydro-4H-thieno[2,3-d]azepin-2-yl)-2-(4-sulfamoylphenyl)acetamide], the pEC50 in assay [1] was above 7.00; in assay [2], 6.00 to 7.00; in assay [3] it was 6.00 to 7.00; in assay [4], above 7.00.
For `N#Cc1c(NC(=O)Cc2ccc(S(N)(=O)=O)cc2)sc2c1CCN(Cc1ccccc1Cl)C2` [Example 114, N-(6-(2-chlorobenzyl)-3-cyano-4,5,6,7-tetrahydrothieno[2,3-c]pyridin-2-yl)-2-(4-sulfamoylphenyl)acetamide], the pEC50 is 6.00 to 7.00 in assay [1], 6.00 to 7.00 in assay [2], 6.00 to 7.00 in assay [3] and above 7.00 in assay [4].
In the case of `COc1cccc(CC(=O)Nc2sc3c(c2C#N)CN(Cc2cccc(F)c2)CC3)c1Cl` [Example 41, 2-(2-chloro-3-methoxyphenyl)-N-(3-cyano-5-(3-fluorobenzyl)-4,5,6,7-tetrahydrothieno[3,2-c]pyridin-2-yl)acetamide], the pEC50 in assay [1] is 6.00 to 7.00; in assay [2] it was 6.00 to 7.00; in assay [3], below 6.00; in assay [4], 6.00 to 7.00.
For `COc1ccccc1CN1CCc2c(sc(NC(=O)Cc3ccc(S(N)(=O)=O)cc3)c2C#N)C1` [Example 94, N-(3-cyano-6-(2-methoxybenzyl)-4,5,6,7-tetrahydrothieno[2,3-c]pyridin-2-yl)-2-(4-sulfamoylphenyl) acetamide], the pEC50 in assay [1] is 6.00 to 7.00; in assay [2] it was below 6.00; in assay [3], below 6.00; in assay [4], 6.00 to 7.00.
`CC1(C)CS(=O)(=O)c2ccc(CC(=O)Nc3sc4c(c3C#N)CN(Cc3cccc(F)c3)CC4)cc21` [Example 42, N-(3-cyano-5-(3-fluorobenzyl)-4,5,6,7-tetrahydrothieno[3,2-c]pyridin-2-yl)-2-(3,3-dimethyl-1,1-dioxido-2,3-dihydrobenzo[b]thiophen-5-yl)acetamide]: the pEC50 is above 7.00 in assay [1], above 7.00 in assay [2], 6.00 to 7.00 in assay [3] and above 7.00 in assay [4].
As to `CS(=O)(=O)Nc1ccc(CC(=O)Nc2sc3c(c2C#N)CN(Cc2cccc(F)c2)CC3)cc1` [Example 46, N-(3-cyano-5-(3-fluorobenzyl)-4,5,6,7-tetrahydrothieno[3,2-c]pyridin-2-yl)-2-(4-(methylsulfonamido)phenyl)acetamide], the pEC50 in assay [1], in assay [2], in assay [3] and in assay [4] was 6.00 to 7.00 in each case.
`COC(=O)c1cccc(CN2CCc3c(sc(NC(=O)Cc4ccc(S(C)(=O)=O)cc4)c3C#N)C2)c1` [Example 120, methyl 3-((3-cyano-2-(2-(4-(methylsulfonyl)phenyl)acetamido)-4,7-dihydrothieno[2,3-c]pyridin-6(51-1)-yl)methyl)benzoate]: the pEC50 in assay [1] was 6.00 to 7.00; in assay [2] it was 6.00 to 7.00; in assay [3] it was below 6.00; in assay [4] it was above 7.00.
As for `COc1cc(CC(=O)Nc2sc3c(c2C#N)CN(Cc2cccc(F)c2)CC3)ccc1S(C)(=O)=O` [Example 30, N-(3-cyano-5-(3-fluorobenzyl)-4,5,6,7-tetrahydrothieno[3,2-c]pyridin-2-yl)-2-(3-methoxy-4-(methylsulfonyl)phenyl)acetamide], the pEC50 in assay [1] is above 7.00; in assay [2], above 7.00; in assay [3], 6.00 to 7.00; in assay [4], above 7.00.
